Laboratory results taken from patent US8921406B2, “5-ring heteroaromatic compounds and their use as binding partners for 5-HT5 receptors” (AbbVie Deutschland GmbH & Co. KG, priority 2005, dated 2014).
Counter-ions that a name gives are not always drawn.

These compounds were tested against T1, h5-HT5A receptor (Homo sapiens, UniProt P47898) (assay: h5-HT5A-[3H]5-CT binding assay). Conditions: membranes of HEK293 cells expressing h5-HT5A; 2.5 nM [3H]5-CT; read-out: Binding affinity 5-HT5A (Ki).
T1 construct: expressed in transfected cells
Method: 1. h5-HT5A-[^3H]5-CT Binding Assay
Membranes of HEK293 cells which permanently express the h5-HT5A receptor gene were incubated in 100 mM tris-HCl buffer (pH 7.7) containing 1 mM EDTA, in the presence of 2.5 nM [^3H]5-CT (total volume 600 μL). The total binding is defined as the binding that is observed when the membranes are incubated in the presence of only the radioligand. The inhibition induced by the compound is determined by incubation of cell membranes in the presence of the radioligand and various concentrations of the compound of interest. Nonspecific binding is defined as the [^3H]5-CT binding obtained by incubation of the membranes, the same as for the total binding, but in the presence of 10 μM methiothepine. Following incubation for 75 min at 30° C., the membrane suspension was filtered through a GF/B-Filter coated with 0.03% PEI, using a Skatron® harvesting system. The residual radioactivity in the filter was quantified by liquid scintillation counting.
Various concentrations of the test substances were used in both assays, and the Ki or IC50 values were determined.

T1 sequence (P47898 whole entry): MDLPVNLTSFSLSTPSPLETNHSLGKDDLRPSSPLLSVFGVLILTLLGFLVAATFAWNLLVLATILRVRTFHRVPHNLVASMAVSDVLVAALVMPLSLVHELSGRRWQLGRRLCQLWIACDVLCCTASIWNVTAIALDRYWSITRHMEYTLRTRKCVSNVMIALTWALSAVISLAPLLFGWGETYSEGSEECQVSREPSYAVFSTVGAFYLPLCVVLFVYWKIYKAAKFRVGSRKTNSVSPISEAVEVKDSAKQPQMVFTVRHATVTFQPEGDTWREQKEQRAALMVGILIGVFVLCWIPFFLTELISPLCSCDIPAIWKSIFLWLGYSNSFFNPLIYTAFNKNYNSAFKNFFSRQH

`COc1ccccc1Cn1cc(-c2cccc(NS(=O)(=O)c3ccccc3)c2)nc1N` [Example 56, N-{3-[2-Amino-1-(2-methoxybenzyl)-1H-imidazole-4-yl]phenyl}benzenesulfonamide] and `COc1ccccc1Cn1cc(-c2ccc(NS(=O)(=O)c3ccccc3)cc2)nc1N` [Example 59, N-{4-[2-Amino-1-(2-methoxybenzyl)-1H-imidazole-4-yl]phenyl}benzenesulfonamide] cannot be ordered by Ki: less than 600 nM for the first, less than 600 nM for the second.

`COc1ccccc1Cn1cc(-c2ccco2)nc1N` [Example 15, 4-Furan-2-yl-1-(2-methoxybenzyl)-1H-imidazole-2-ylamine hydrochloride] and `COc1ccccc1Cn1cc(-c2ccc(C)o2)nc1N` [Example 36, 1-(2-Methoxybenzyl)-4-(5-methylfuran-2-yl)-1H-imidazole-2-ylamine] cannot be ordered by Ki: less than 600 nM for the first, less than 600 nM for the second.

`COc1ccccc1Cn1cc(-c2ccc(C)cc2)nc1N` [Example 27, 1-(2-Methoxybenzyl)-4-p-tolyl-1H-imidazole-2-ylamine] and `COc1ccccc1Cn1cc(-c2ccc(F)cc2)nc1N` [Example 12, 4-(4-Fluorophenyl)-1-(2-methoxybenzyl)-1H-imidazole-2-ylamine] cannot be ordered by Ki: less than 600 nM for the first, less than 600 nM for the second.

`COc1cccc(F)c1Cn1cc(-c2ccsc2)nc1N` [Example 31, 1-(2-Fluoro-6-methoxybenzyl)-4-thiophene-3-yl-1H-imidazole-2-ylamine] and `COc1cccc(Cl)c1Cn1cc(-c2ccsc2)nc1N` [Example 28, 1-(2-Chloro-6-methoxybenzyl)-4-thiophene-3-yl-1H-imidazole-2-ylamine] cannot be ordered by Ki: less than 600 nM for the first, less than 600 nM for the second.

`COc1ccc(-c2cn(Cc3c(Cl)cccc3OC)c(N)n2)cc1` [Example 32, 1-(2-Chloro-6-methoxybenzyl)-4-(4-methoxyphenyl)-1H-imidazole-2-ylamine] and `COc1cccc(Cl)c1Cn1cc(-c2ccc(Cl)cc2)nc1N` [Example 34, 1-(2-Chloro-6-methoxybenzyl)-4-(4-chlorophenyl)-1H-imidazole-2-ylamine] cannot be ordered by Ki: less than 600 nM for the first, less than 600 nM for the second.

`CCOC(=O)c1cc(-c2cn(Cc3ccccc3OC)c(N)n2)on1` [Example 30, 5-[2-Amino-1-(2-methoxybenzyl)-1H-imidazole-4-yl]isoxazole-3-carboxylic acid ethyl ester] and `CCOC(=O)c1cn(Cc2ccccc2OC)c(N)n1` [Example 21, 2-Amino-1-(2-methoxybenzyl)-1H-imidazole-4-carboxylic acid ethyl ester] cannot be ordered by Ki: greater than 600 nM for the first, greater than 600 nM for the second.

`COc1ccccc1Cn1cc(-c2csc3ccccc23)nc1N` [Example 17, 4-Benzo[b]thiophene-3-yl-1-(2-methoxybenzyl)-1H-imidazole-2-ylamine hydrochloride] and `COc1ccccc1Cn1cc(-c2cccc3ccccc23)nc1N` [Example 43, 1-(2-Methoxybenzyl)-4-naphthalene-1-yl-1H-imidazole-2-ylamine] cannot be ordered by Ki: less than 600 nM for the first, less than 600 nM for the second.

`COc1ccccc1Cn1cc(-c2cccnc2)nc1N` [Example 61, 1-(2-Methoxybenzyl)-4-pyridine-3-yl-1H-imidazole-2-ylamine] and `COc1ccccc1Cn1cc(-c2ccccc2)nc1N` [Example 10, 1-(2-Methoxybenzyl)-4-phenyl-1H-imidazole-2-ylamine hydrochloride] cannot be ordered by Ki: less than 600 nM for the first, less than 600 nM for the second.

`COc1ccccc1Cn1cc(-c2cccc(NS(=O)(=O)C(C)C)c2)nc1N` [Example 64, Propane-2-sulfonic acid {3-[2-amino-1-(2-methoxybenzyl)-1H-imidazole-4-yl]phenyl}amide] and `COc1ccccc1Cn1cc(-c2cccc(NS(=O)(=O)c3cccs3)c2)nc1N` [Example 60, Thiophene-2-sulfonic acid {3-[2-amino-1-(2-methoxybenzyl)-1H-imidazole-4-yl]phenyl}amide] cannot be ordered by Ki: less than 600 nM for the first, less than 600 nM for the second.

`COc1ccccc1Cn1cc(-c2ccc(OCc3ccccc3)cc2)nc1N` [Example 48, 4-(4-Benzyloxyphenyl)-1-(2-methoxybenzyl)-1H-imidazole-2-ylamine] and `COc1ccccc1Cn1cc(-c2ccc(Oc3ccccc3)cc2)nc1N` [Example 44, 1-(2-Methoxybenzyl)-4-(4-phenoxyphenyl)-1H-imidazole-2-ylamine hydrochloride] cannot be ordered by Ki: less than 600 nM for the first, less than 600 nM for the second.

`COc1ccccc1Cn1cc(-c2ccc3ccccc3c2)nc1N` [Example 16, 1-(2-Methoxybenzyl)-4-naphthalene-2-yl-1H-imidazole-2-ylamine hydrochloride] and `COc1cccc(-c2cn(Cc3ccccc3OC)c(N)n2)c1` [Example 23, 1-(2-Methoxybenzyl)-4-(3-methoxyphenyl)-1H-imidazole-2-ylamine] cannot be ordered by Ki: less than 600 nM for the first, less than 600 nM for the second.

`COc1ccccc1-c1cn(Cc2c(OC)cccc2OC)c(N)n1` [Example 26, 1-(2,6-Dimethoxybenzyl)-4-(2-methoxyphenyl)-1H-imidazole-2-ylamine hydrochloride] and `COc1cccc(OC)c1Cn1cc(-c2ccccc2)nc1N` [Example 8, 1-(2,6-Dimethoxybenzyl)-4-phenyl-1H-imidazole-2-ylamine hydrochloride] cannot be ordered by Ki: less than 600 nM for the first, less than 600 nM for the second.

`COc1ccccc1Cn1cc(-c2ccc(OC(F)F)cc2)nc1N` [Example 46, 4-(4-Difluoromethoxyphenyl)-1-(2-methoxybenzyl)-1H-imidazole-2-ylamine] and `COc1ccccc1Cn1cc(-c2ccc(OC(F)(F)F)cc2)nc1N` [Example 22, 1-(2-Methoxybenzyl)-4-(4-trifluoromethoxyphenyl)-1H-imidazole-2-ylamine] cannot be ordered by Ki: less than 600 nM for the first, less than 600 nM for the second.

`COc1ccccc1Cn1cc(C23CC4CC(CC(C4)C2)C3)nc1N` [Example 24, 4-Adamantane-1-yl-1-(2-methoxybenzyl)-1H-imidazole-2-ylamine] and `COc1ccccc1Cn1cc(-c2nccs2)nc1N` [Example 49, 1-(2-Methoxybenzyl)-4-thiazole-2-yl-1H-imidazole-2-ylamine hydrochloride] cannot be ordered by Ki: less than 600 nM for the first, less than 600 nM for the second.

`COc1ccccc1Cn1cc(-c2ccc(Cl)cc2Cl)nc1N` [Example 35, 4-(2,4-Dichlorophenyl)-1-(2-methoxybenzyl)-1H-imidazole-2-ylamine hydrochloride] and `COc1ccccc1Cn1cc(-c2ccc(C)s2)nc1N` [Example 38, 1-(2-Methoxybenzyl)-4-(5-methylthiophene-2-yl)-1H-imidazole-2-ylamine] cannot be ordered by Ki: less than 600 nM for the first, less than 600 nM for the second.

`COc1ccccc1Cn1cc(-c2cccc(NC(=O)c3ccccc3)c2)nc1N` [Example 58, N-{3-[2-Amino-1-(2-methoxybenzyl)-1H-imidazole-4-yl]phenyl}benzamide] and `COc1ccccc1Cn1cc(-c2cccc(NS(=O)(=O)c3ccc(-c4ccccc4)cc3)c2)nc1N` [Example 63, Biphenyl-4-sulfonic acid {3-[2-amino-1-(2-methoxybenzyl)-1H-imidazole-4-yl]phenyl}amide] cannot be ordered by Ki: less than 600 nM for the first, less than 600 nM for the second.

Going from `COc1ccccc1Cn1cc(-c2csc(-c3ccccc3)n2)nc1N` [Example 47, 1-(2-Methoxybenzyl)-4-(2-phenylthiazole-4-yl)-1H-imidazole-2-ylamine] to `COc1ccccc1Cn1nc(-c2ccccc2)nc1N` [Example 5, 2-(2-Methoxybenzyl)-5-phenyl-4H-[1,2,4]triazole-3-ylamine], the Ki rises from less than 600 nM to greater than 600 nM.

`COc1cccc(OC)c1Cn1cc(-c2ccc(C#N)cc2)nc1N` [Example 25, 4-[2-Amino-1-(2,6-dimethoxybenzyl)-1H-imidazole-4-yl]benzonitrile hydrochloride] and `COc1cccc(OC)c1Cn1cc(-c2ccc(F)cc2)nc1N` [Example 18, 1-(2,6-Dimethoxybenzyl)-4-(4-fluorophenyl)-1H-imidazole-2-ylamine] cannot be ordered by Ki: less than 600 nM for the first, less than 600 nM for the second.

`COc1ccccc1Cn1c(Cc2ccccc2)cnc1N` [Example 41, 5-Benzyl-1-(2-methoxybenzyl)-1H-imidazole-2-ylamine] and `COc1ccccc1Cn1cc(-c2cccc([N+](=O)[O-])c2)nc1N` [Example 45, 1-(2-Methoxybenzyl)-4-(3-nitrophenyl)-1H-imidazole-2-ylamine] cannot be ordered by Ki: less than 600 nM for the first, less than 600 nM for the second.

`COc1cccc(Cl)c1Cn1cc(-c2cccs2)nc1N` [Example 37, 1-(2-Chloro-6-methoxybenzyl)-4-thiophene-2-yl-1H-imidazole-2-ylamine] and `COc1cccc(OC)c1Cn1cc(-c2cccs2)nc1N` [Example 19, 1-(2,6-Dimethoxybenzyl)-4-thiophene-2-yl-1H-imidazole-2-ylamine] cannot be ordered by Ki: less than 600 nM for the first, less than 600 nM for the second.

Going from `COc1cc([N+](=O)[O-])ccc1Cn1cc(-c2ccc(C#N)cc2)nc1N` [Example 54, 4-[2-Amino-1-(2-methoxy-4-nitrobenzyl)-1H-imidazole-4-yl]benzonitrile] to `COc1cccc(F)c1Cn1cc(-c2ccc(C#N)cc2)nc1N` [Example 33, 4-[2-Amino-1-(2-fluoro-6-methoxybenzyl)-1H-imidazole-4-yl]benzonitrile], the Ki falls from greater than 600 nM to less than 600 nM.

First: COc1ccc(-c2nc(Cc3ccccc3OC)c(N)[nH]2)cc1 [Example 62, 5-(2-Methoxybenzyl)-2-(4-methoxyphenyl)-3H-imidazole-4-ylamine hydrochloride]
Second: COc1cccc(Cl)c1Cn1cc(-c2ccc(OC(F)(F)F)cc2)nc1N [Example 29, 1-(2-Chloro-6-methoxybenzyl)-4-(4-trifluoromethoxyphenyl)-1H-imidazole-2-ylamine]
The Ki of the first is higher: greater than 600 nM for the first, less than 600 nM for the second.

With `COc1cccc(OC)c1Cn1cc(-c2cc(C)cs2)nc1N` [Example 52, 1-(2,6-Dimethoxybenzyl)-4-(4-methylthiophene-2-yl)-1H-imidazole-2-ylamine] the Ki was less than 600 nM.
